Experimental data from ChEMBL document CHEMBL5724914, “Linking interpersonal differences in gut microbiota composition and drug biotransformation activity” (2024).

Tests used:
[1] = human gut metagenome, 24 h, 2 µM
[2] = (§1) The drug is tested on WLS-039 corresponding to human gut metagenome with ENA study accession number: PRJEB37062 and ENA sample accession number: ERS12561746 for biotransformation under anaerobic condition. The drug concentrations were measured over 9 timepoints collected between 0 and 24 hours of incubation by liquid-chromatography-coupled mass spectrometry (LC–MS); conditions: 2 µM
[3] = as §1, with “Z-008” for “WLS-039”, “to” for “to human gut”, “ERS12561808” for “ERS12561746”; conditions: 2 µM
[4] = human gut metagenome, 24 h, 2 µM; remark: listed apart in the source
[5] = as §1, with “WLS-170” for “WLS-039”, “ERS12561762” for “ERS12561746”; conditions: 2 µM
[6] = human gut metagenome, 24 h, 2 µM; remark: listed apart in the source
[7] = human gut metagenome, 24 h, 2 µM; remark: listed apart in the source
[8] = as §1, with “WLS-220” for “WLS-039”, “ERS12561769” for “ERS12561746”; conditions: 2 µM
[9] = human gut metagenome, 24 h, 2 µM; remark: listed apart in the source
[10] = human gut metagenome, 24 h, 2 µM; remark: listed apart in the source
[11] = as §1, with “WLS-027” for “WLS-039”, “ERS12561744” for “ERS12561746”; conditions: 2 µM
[12] = as §1, with “Z-002” for “WLS-039”, “rabbit” for “human”, “ERS12561802” for “ERS12561746”; conditions: 2 µM
[13] = human gut metagenome, 24 h, 2 µM; remark: listed apart in the source
[14] = human gut metagenome, 24 h, 2 µM; remark: listed apart in the source
[15] = as §1, with “Z-006” for “WLS-039”, “mouse” for “human”, “ERS12561806” for “ERS12561746”; conditions: 2 µM
[16] = human gut metagenome, 24 h, 2 µM; remark: listed apart in the source
[17] = as §1, with “Z-014” for “WLS-039”, “rat” for “human”, “ERS12561814” for “ERS12561746”; conditions: 2 µM
[18] = as §1, with “Z-029” for “WLS-039”, “rat” for “human”, “ERS12561828” for “ERS12561746”; conditions: 2 µM
[19] = as §1, with “Z-011” for “WLS-039”, “mouse” for “human”, “ERS12561811” for “ERS12561746”; conditions: 2 µM
[20] = as §1, with “WLS-069” for “WLS-039”, “ERS12561748” for “ERS12561746”; conditions: 2 µM
Further: call rule not given here.

SMILES	Bacterial Biotransformation [1]	Bacterial Biotransformation [2]	Bacterial Biotransformation [3]	Bacterial Biotransformation [4]	Bacterial Biotransformation [5]	Bacterial Biotransformation [6]	Bacterial Biotransformation [7]	Bacterial Biotransformation [8]	Bacterial Biotransformation [9]	Bacterial Biotransformation [10]	Bacterial Biotransformation [11]	Bacterial Biotransformation [12]	Bacterial Biotransformation [13]	Bacterial Biotransformation [14]	Bacterial Biotransformation [15]	Bacterial Biotransformation [16]	Bacterial Biotransformation [17]	Bacterial Biotransformation [18]	Bacterial Biotransformation [19]	Bacterial Biotransformation [20]
Fc1ccc([C@@H]2CCNC[C@H]2COc2ccc3c(c2)OCO3)cc1 [PAROXETINE]	Compound metabolized	Compound metabolized	Compound NOT metabolized	Compound NOT metabolized	Compound metabolized	Compound metabolized	Compound metabolized	Compound metabolized	Compound metabolized	Compound metabolized	Compound metabolized	Compound NOT metabolized	Compound NOT metabolized	Compound metabolized	Compound NOT metabolized	Compound NOT metabolized	Compound NOT metabolized	Compound NOT metabolized	Compound NOT metabolized	Compound metabolized
O=c1[nH]c2ccccc2n1C1CCN(CCCC(c2ccc(F)cc2)c2ccc(F)cc2)CC1 [PIMOZIDE]	Compound NOT metabolized	Compound NOT metabolized	Compound metabolized	Compound NOT metabolized	Compound metabolized	Compound metabolized	Compound metabolized	Compound metabolized	Compound metabolized	Compound metabolized	Compound metabolized	Compound NOT metabolized	Compound metabolized	Compound metabolized	Compound metabolized	Compound metabolized	Compound NOT metabolized	Compound NOT metabolized	Compound metabolized	Compound metabolized
CS(=O)(=O)O.OC(CCN1CCCCC1)(c1ccccc1)c1ccccc1 [PRIDINOL METHANESULFONATE]	Compound NOT metabolized	Compound NOT metabolized	Compound NOT metabolized	Compound NOT metabolized	Compound metabolized	Compound metabolized	Compound metabolized	Compound metabolized	Compound metabolized	Compound metabolized	Compound NOT metabolized	Compound metabolized	Compound NOT metabolized	Compound metabolized	Compound NOT metabolized	Compound NOT metabolized	Compound NOT metabolized	Compound NOT metabolized	Compound NOT metabolized	Compound NOT metabolized
CC(CN1c2ccccc2Sc2ccccc21)N(C)C (stereo not given) [PROMETHAZINE]	Compound NOT metabolized	Compound metabolized	Compound NOT metabolized	Compound metabolized	Compound metabolized	Compound metabolized	Compound NOT metabolized	Compound metabolized	Compound metabolized	Compound metabolized	Compound metabolized	Compound NOT metabolized	Compound NOT metabolized	Compound metabolized	Compound NOT metabolized	Compound NOT metabolized	Compound NOT metabolized	Compound NOT metabolized	Compound NOT metabolized	Compound metabolized
OCCOCCN1CCN(C2=Nc3ccccc3Sc3ccccc32)CC1 [QUETIAPINE]	Compound NOT metabolized	Compound NOT metabolized	Compound NOT metabolized	Compound NOT metabolized	Compound metabolized	Compound metabolized	Compound metabolized	Compound metabolized	Compound metabolized	Compound metabolized	Compound metabolized	Compound metabolized	Compound NOT metabolized	Compound metabolized	Compound NOT metabolized	Compound NOT metabolized	Compound NOT metabolized	Compound NOT metabolized	Compound NOT metabolized	Compound NOT metabolized
CCC(=O)NCC[C@@H]1CCc2ccc3c(c21)CCO3 [RAMELTEON]	Compound metabolized	Compound metabolized	Compound metabolized	Compound metabolized	Compound metabolized	Compound metabolized	Compound metabolized	Compound metabolized	Compound metabolized	Compound metabolized	Compound metabolized	Compound metabolized	Compound metabolized	Compound metabolized	Compound metabolized	Compound NOT metabolized	Compound metabolized	Compound NOT metabolized	Compound NOT metabolized	Compound metabolized
CNC(=C[N+](=O)[O-])NCCSCc1ccc(CN(C)C)o1 [RANITIDINE]	Compound NOT metabolized	Compound NOT metabolized	Compound NOT metabolized	Compound NOT metabolized	Compound NOT metabolized	Compound NOT metabolized	Compound metabolized	Compound NOT metabolized	Compound metabolized	Compound metabolized	Compound NOT metabolized	Compound metabolized	Compound metabolized	Compound NOT metabolized	Compound metabolized	Compound metabolized	Compound metabolized	Compound metabolized	Compound metabolized	Compound metabolized
Nc1nc2ccc(OC(F)(F)F)cc2s1 [RILUZOLE]	Compound NOT metabolized	Compound metabolized	Compound metabolized	Compound NOT metabolized	Compound metabolized	Compound metabolized	Compound metabolized	Compound metabolized	Compound metabolized	Compound metabolized	Compound metabolized	Compound metabolized	Compound metabolized	Compound metabolized	Compound NOT metabolized	Compound metabolized	Compound NOT metabolized	Compound metabolized	Compound metabolized	Compound metabolized
